Like-named read-outs stand apart in the source and are kept apart here.
What was measured:
Test in all cases: MTT cell proliferation assay
Type in all cases: cell-based
[1] = tested on: MS751 cells; conditions: Homo sapiens, MS751, MS751 cells, approximately 64-72 hours incubation
Method: (§1) The MTT cell proliferation assay was used to study the cytotoxic properties of the compounds. The assay was performed according to the method described by Roche Molecular Biochemicals, with minor modifications. The assay is based on the cleavage of the tetrazolium salt, MTT, in the presence of an electron-coupling reagent. The water-insoluble formazan salt produced must be solubilized in an additional step. Cells grown in a 96-well tissue culture plate were incubated with the MTT solution for approximately 4 hours. After this incubation period, a water-insoluble formazan dye formed. After solubilization, the formazan dye was quantitated using a scanning multi-well spectrophotometer (ELISA reader). […] The cells were seeded at 5,000-10,000 cells in each well of 96-well plate in 100 μL of fresh culture medium and were allowed to attach overnight. The stock solutions of the compounds were diluted in 100 μL cell culture medium to obtain eight concentrations of each test compound, ranging from 1 nM to 30 μM. […] All optical densities were measured at 490 nm using a Vmax Kinetic Microplate Reader (Molecular Devices). In most cases, the assay was performed in duplicate and the results were presented as a mean percent inhibition to the negative control±SE. The following formula was used to calculate the percent of inhibition: Inhibition (%)=(1−(ODo/OD))×100.
(§2) The compounds were tested against MS751, Z138 and 3T3 cells. The MS751 cell line is derived from a metastasis to lymph node of human cervix from a patient diagnosed with squamous cell carcinoma of the cervix. The Z138 cell line is a mature B-cell acute lymphoblastic leukemia cell line derived from a patient with chronic lymphocytic leukemia. 3T3 cells are standard fibroblast cells; they were originally isolated from Swiss mouse embryo tissue.

[2] = tested on: 3T3 cells; conditions: Mus musculus, NIH3T3, approximately 64-72 hours incubation
Method: as §1, §2

[3] = tested on: Z138 cells; conditions: Homo sapiens, Z-138, Z138 cells, approximately 64-72 hours incubation
Method: as §1, §2

[4] = read-out: MTT Assay IC50 MS-751
[5] = read-out: MTT Assay IC50, MS-751
[6] = read-out: MTT Assay IC50, Z-138

Structure (SMILES) | IC50 [1, 4] [µM] | IC50 ([2]; read-out: MTT Assay IC50 3T3) [µM] | IC50 ([3]; read-out: MTT Assay IC50 Z-138) [µM] | IC50 [1, 5] [µM] | IC50 ([2]; read-out: MTT Assay IC50, 3T3) [µM] | IC50 [3, 6] [µM]
COc1ccc(-c2ccc(S(=O)(=O)N3CCOCC3)cc2)c2cc(CNC(=O)/C=C/c3ccc(N)nc3)oc12 [Compound 554, (E)-3-(6-aminopyridin-3-yl)-N-((7-methoxy-4-(4-(morpholinosulfonyl)phenyl)benzofuran-2-yl)methyl)acrylamide] | 0.1 to 5 | > 10 | < 0.1 | – | – | –
CC(=O)c1ccc(-c2cc(Cl)c3oc(CNC(=O)/C=C/c4ccc(N)nc4)cc3c2)s1 [Compound 500, (E)-N-((5-(5-acetylthiophen-2-yl)-7-chlorobenzofuran-2-yl)methyl)-3-(6-aminopyridin-3-yl) acrylamide] | 0.1 to 5 | > 10 | 0.1 to 5 | – | – | –
Nc1ccc(/C=C/C(=O)NCc2cc3cc(-c4ccc(C(=O)N5CCC(F)CC5)cc4)cc(C(F)(F)F)c3o2)cn1 [Compound 567, (E)-3-(6-aminopyridin-3-yl)-N-((5-(4-(4-fluoropiperidine-1-carbonyl)phenyl)-7-(trifluoromethyl)benzofuran-2-yl)methyl)acrylamide] | 0.1 to 5 | > 10 | 0.1 to 5 | – | – | –
Nc1ccc(/C=C/C(=O)NCc2nc3cc(-c4ccc(C(=O)N5CC(F)(F)C5)cc4)cc(Cl)c3o2)cn1 [Compound 509, (E)-3-(6-aminopyridin-3-yl)-N-((7-chloro-5-(4-(3,3-difluoroazetidine-1-carbonyl)phenyl)benzo[d]oxazol-2-yl)methyl)acrylamide] | 0.1 to 5 | > 10 | 0.1 to 5 | – | – | –
Nc1ccc(/C=C/C(=O)NCc2cc3cc(-c4ccc(F)c(S(=O)(=O)N5CCOCC5)c4)cc(Cl)c3o2)cn1 [Compound 636, (E)-3-(6-aminopyridin-3-yl)-N-((7-chloro-5-(4-fluoro-3-(morpholinosulfonyl)phenyl)benzofuran-2-yl)methyl)acrylamide] | 0.1 to 5 | > 10 | 0.1 to 5 | – | – | –
O=C(/C=C/c1cccnc1)NCc1cc2cc(-c3ccc(C(=O)N4CCC(F)(F)CC4)cn3)cc(-c3cccc(F)c3)c2o1 [Compound 720, (E)-N-((5-(5-(4,4-difluoropiperidine-1-carbonyl)pyridin-2-yl)-7-(3-fluorophenyl)benzofuran-2-yl)methyl)-3-(pyridin-3-yl)acrylamide] | – | – | – | < 0.1 | < 0.1 | < 0.1
CC1(C)CN(S(=O)(=O)c2ccc(-c3cc(Cl)c4oc(CNC(=O)/C=C/c5ccc(N)nc5)cc4c3)cc2)C1 [Compound 555, (E)-3-(6-aminopyridin-3-yl)-N-((7-chloro-5-(4-(3,3-dimethylazetidin-1-ylsulfonyl)phenyl)benzofuran-2-yl)methyl)acrylamide] | 0.1 to 5 | > 10 | 0.1 to 5 | – | – | –
Nc1ccc(/C=C/C(=O)NCc2cc3cc(-c4ncc(C(=O)N5CCOCC5)cn4)cc(C(F)(F)F)c3o2)cn1 [Compound 593, (E)-3-(6-aminopyridin-3-yl)-N-((5-(5-(morpholine-4-carbonyl)pyrimidin-2-yl)-7-(trifluoromethyl)benzofuran-2-yl)methyl)acrylamide] | 0.1 to 5 | > 10 | 0.1 to 5 | – | – | –
Nc1ccc(/C=C/C(=O)NCc2cc3cc(-c4ccc(S(=O)(=O)N5CC(F)C5)cc4)cc(Cl)c3o2)cn1 [Compound 533, (E)-3-(6-aminopyridin-3-yl)-N-((7-chloro-5-(4-(3-fluoroazetidin-1-ylsulfonyl)phenyl)benzofuran-2-yl)methyl)acrylamide] | 0.1 to 5 | > 10 | 0.1 to 5 | – | – | –
Nc1ccc(/C=C/C(=O)NCc2cc3cc(-c4ncc(C(=O)N5CCNCC5)cn4)cc(C(F)(F)F)c3o2)cn1 [Compound 590, (E)-3-(6-aminopyridin-3-yl)-N-((5-(5-(piperazine-1-carbonyl)pyrimidin-2-yl)-7-(trifluoromethyl)benzofuran-2-yl)methyl)acrylamide] | 0.1 to 5 | > 10 | 0.1 to 5 | – | – | –
Nc1ccc(/C=C/C(=O)NCc2cc3cc(-c4ccc(S(=O)(=O)N5CC(F)(F)C5)cc4)cc(C(F)(F)F)c3o2)cn1 [Compound 644, (E)-3-(6-aminopyridin-3-yl)-N-((5-(4-(3,3-difluoroazetidin-1-ylsulfonyl)phenyl)-7-(trifluoromethyl)benzofuran-2-yl)methyl)acrylamide] | 5 to 10 | > 10 | 0.1 to 5 | – | – | –
Nc1ccc(/C=C/C(=O)NCc2cc3cc(-c4ccc(NC(=O)N5CCOCC5)cc4)cc(Cl)c3o2)cn1 [Compound 582, (E)-N-(4-(2-((3-(6-aminopyridin-3-yl)acrylamido)methyl)-7-chlorobenzofuran-5-yl)phenyl)morpholine-4-carboxamide] | 5 to 10 | > 10 | 5 to 10 | – | – | –
COc1cc(-c2ccc(C(=O)N3CCC(F)(F)CC3)cn2)cc2cc(CNC(=O)/C=C/c3ccc(N)nc3)oc12 [Compound 651, (E)-3-(6-aminopyridin-3-yl)-N-((5-(5-(4,4-difluoropiperidine-1-carbonyl)pyridin-2-yl)-7-methoxybenzofuran-2-yl)methyl)acrylamide] | < 0.1 | > 10 | < 0.1 | – | – | –
Nc1ccc(/C=C/C(=S)NCc2cc3cc(-c4ccc(C(=S)N5CCC(F)(F)CC5)cn4)cc(C(F)(F)F)c3o2)cn1 [Compound 678, (E)-3-(6-aminopyridin-3-yl)-N-((5-(5-(4,4-difluoropiperidine-1-carbonothioyl)pyridin-2-yl)-7-(trifluoromethyl)benzofuran-2-yl)methyl)prop-2-enethioamide] | – | – | – | 0.1 to 5 | > 10 | 0.1 to 5
Nc1ccc(/C=C/C(=O)NCc2cc3cc(-c4ccc(C(=O)N5CCC(F)(F)CC5)cc4)cc(-c4ccc(F)cc4F)c3o2)cn1 [Compound 736, (E)-3-(6-aminopyridin-3-yl)-N-((7-(2,4-difluorophenyl)-5-(4-(4,4-difluoropiperidine-1-carbonyl)phenyl)benzofuran-2-yl)methyl)acrylamide] | – | – | – | < 0.1 | 0.1 to 5 | < 0.1
Nc1ccc(/C=C/C(=O)NCc2cc3cc(-c4cccc(C(=O)N5CCOCC5)c4)cc(Cl)c3o2)cn1 [Compound 543, (E)-3-(6-Aminopyridin-3-yl)-N-((7-chloro-5-(3-(morpholine-4-carbonyl)phenyl)benzofuran-2-yl)methyl)acrylamide] | < 0.1 | 0.1 to 5 | < 0.1 | – | – | –
Nc1ccc(/C=C/C(=O)NCc2cc3cc(-c4ccc(C(=O)N5CCC(F)(F)CC5)cn4)cc(Cl)c3o2)cn1 [Compound 591, (E)-3-(6-aminopyridin-3-yl)-N-((7-chloro-5-(5-(4,4-difluoropiperidine-1-carbonyl)pyridin-2-yl)benzofuran-2-yl)methyl)acrylamide] | 0.1 to 5 | > 10 | 0.1 to 5 | – | – | –
CN1CCN(C(=O)c2ccc(-c3cc(Cl)c4oc(CNC(=O)/C=C/c5ccc(N)nc5)cc4c3)nc2)CC1 [Compound 584, (E)-3-(6-aminopyridin-3-yl)-N-((7-chloro-5-(5-(4-methylpiperazine-1-carbonyl)pyridin-2-yl)benzofuran-2-yl)methyl)acrylamide] | < 0.1 | 5 to 10 | < 0.1 | – | – | –
COc1cc(-c2ccc(C(=O)N3CCNCC3)cc2)cc2cc(CNC(=O)/C=C/c3ccc(N)nc3)oc12 [Compound 637, (E)-3-(6-aminopyridin-3-yl)-N-((7-methoxy-5-(4-(piperazine-1-carbonyl)phenyl)benzofuran-2-yl)methyl)acrylamide] | 0.1 to 5 | > 10 | 0.1 to 5 | – | – | –
Nc1ccc(/C=C/C(=O)NCc2cc3c(Cl)cc(-c4ccc(C(=O)N5CCC(F)(F)CC5)cc4)cc3o2)cn1 [Compound 714] | – | – | – | 0.1 to 5 | > 10 | 0.1 to 5
Nc1ccc(/C=C/C(=O)NCc2cc3cc(-c4ccc(C(=O)N5CC6(COC6)C5)cn4)cc(C(F)(F)F)c3o2)cn1 [Compound 625, (E)-N-((5-(5-(2-oxa-6-azaspiro[3.3]heptane-6-carbonyl)pyridin-2-yl)-7-(trifluoromethyl)benzofuran-2-yl)methyl)-3-(6-aminopyridin-3-yl)acrylamide] | < 0.1 | 0.1 to 5 | < 0.1 | – | – | –
Nc1ccc(/C=C/C(=O)NCc2cc3cc(-c4ccc(C(=O)N5CCC(F)(F)CC5)cn4)cnc3o2)cn1 [Compound 658, (E)-3-(6-aminopyridin-3-yl)-N-((5-(5-(4,4-difluoropiperidine-1-carbonyl)pyridin-2-yl)furo[2,3-b]pyridin-2-yl)methyl)acrylamide] | – | – | – | 0.1 to 5 | > 10 | 0.1 to 5

From patent US12331040B2 (Karyopharm Therapeutics Inc., priority 2013, dated 2025)
